PubChem BioAssay (NCI)
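96-well plates; 48 h exposure; 5 concentrations. Endpoints by linear interpolation between flanking doses. Not reached: highest tested concentration assigned. GI50 is the concentration that inhibits growth by half. The concentration for full growth arrest is given as TGI.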

Assays:
Assay in all cases: inhibition of tumour cell growth, NCI panel, 48 h
[1] = test system: HT29 colon
[2] = test system: SK-MEL-5 melanoma
[3] = test system: SK-OV-3 ovarian
[4] = test system: SN12C renal
[5] = test system: CAKI-1 renal
[6] = test system: SR leukemia
[7] = test system: ACHN renal
[8] = test system: LOX IMVI melanoma
[9] = test system: UACC-62 melanoma
[10] = test system: COLO 205 colon
[11] = test system: SK-MEL-2 melanoma
[12] = test system: U251 CNS
[13] = test system: NCI-H226 lung
[14] = test system: HCT-15 colon
[15] = test system: NCI/ADR-RES ovarian
[16] = test system: CCRF-CEM leukemia
[17] = test system: 786-0 renal
[18] = test system: PC-3 prostate
[19] = test system: SF-295 CNS
[20] = test system: RXF 393 renal
[21] = test system: MDA-MB-435
[22] = test system: MOLT-4 leukemia
[23] = test system: MCF7 breast
[24] = test system: OVCAR-8 ovarian
[25] = test system: HS 578T breast
[26] = test system: A549 NSCLC
[27] = test system: A498 renal
[28] = test system: T-47D breast
[29] = test system: OVCAR-5 ovarian
[30] = test system: RPMI-8226 leukemia
[31] = test system: SW-620 colon
[32] = test system: HCT-116 colon
[33] = test system: TK-10 renal
[34] = test system: NCI-H522 lung
[35] = test system: UACC-257 melanoma
[36] = test system: UO-31 renal
[37] = test system: SK-MEL-28 melanoma
[38] = test system: NCI-H23 lung
[39] = test system: SF-539 CNS
[40] = test system: HOP-62 NSCLC
[41] = test system: SNB-75 CNS
[42] = test system: EKVX NSCLC
[43] = test system: MALME-3M melanoma
[44] = test system: BT-549 breast
[45] = test system: NCI-H460 lung
[46] = test system: IGROV1 ovarian
[47] = test system: MDA-MB-231 breast
[48] = test system: KM12 colon
[49] = test system: DU-145 prostate
[50] = test system: HCC-2998 colon
[51] = test system: SNB-19 CNS
[52] = test system: OVCAR-4 ovarian
[53] = test system: HOP-92 NSCLC
[54] = test system: OVCAR-3 ovarian
[55] = test system: HL-60(TB) leukemia
[56] = test system: K-562 leukemia
[57] = test system: M14 melanoma
[58] = test system: SF-268 CNS
[59] = test system: MDA-N

Work on `OCC1SC(n2cnc3cncnc32)C(O)C1O` (stereo not drawn) yielded a GI50 [1] of over 100 µM, a TGI [1] of over 100 µM and a GI50 [2] of over 100 µM. The TGI [2] was over 100 µM, the GI50 [3] was over 100 µM and the TGI [3] was over 100 µM. It also gave a GI50 [4] of over 100 µM, a TGI [4] of over 100 µM and a GI50 [5] of over 100 µM. The TGI [5] was over 100 µM, the GI50 [6] was over 100 µM and the TGI [6] was over 100 µM. It also gave a GI50 [7] of over 100 µM, a TGI [7] of over 100 µM and a GI50 [8] of over 100 µM. It also gave a TGI [8] of over 100 µM, a GI50 [9] of over 100 µM and a TGI [9] of over 100 µM. It also gave a GI50 [10] of over 100 µM, a TGI [10] of over 100 µM and a GI50 [11] of over 100 µM. The TGI [11] was over 100 µM, the GI50 [12] was over 100 µM and the TGI [12] was over 100 µM. It also gave a GI50 [13] of over 100 µM, a TGI [13] of over 100 µM and a GI50 [14] of over 100 µM. It also gave a TGI [14] of over 100 µM, a GI50 [15] of over 100 µM and a TGI [15] of over 100 µM. It also gave a GI50 [16] of over 100 µM, a TGI [16] of over 100 µM and a GI50 [17] of over 100 µM. For the same compound, the TGI [17] was over 100 µM, the GI50 [18] was over 100 µM and the TGI [18] was over 100 µM. For the same compound, the GI50 [19] was over 100 µM, the TGI [19] was over 100 µM and the GI50 [20] was over 100 µM. For the same compound, the TGI [20] was over 100 µM, the GI50 [21] was over 100 µM and the TGI [21] was over 100 µM. For the same compound, the GI50 [22] was over 100 µM, the TGI [22] was over 100 µM and the GI50 [23] was over 100 µM. The TGI [23] was over 100 µM, the GI50 [24] was 85.2 µM and the TGI [24] was over 100 µM. The GI50 [25] was over 100 µM, the TGI [25] was over 100 µM and the GI50 [26] was over 100 µM. It also gave a TGI [26] of over 100 µM, a GI50 [27] of over 100 µM and a TGI [27] of over 100 µM. For the same compound, the GI50 [28] was over 100 µM, the TGI [28] was over 100 µM and the GI50 [29] was over 100 µM. For the same compound, the TGI [29] was over 100 µM, the GI50 [30] was over 100 µM and the TGI [30] was over 100 µM. For the same compound, the GI50 [31] was over 100 µM, the TGI [31] was over 100 µM and the GI50 [32] was over 100 µM. For the same compound, the TGI [32] was over 100 µM, the GI50 [33] was over 100 µM and the TGI [33] was over 100 µM. The GI50 [34] was over 100 µM, the TGI [34] was over 100 µM and the GI50 [35] was over 100 µM. It also gave a TGI [35] of over 100 µM, a GI50 [36] of over 100 µM and a TGI [36] of over 100 µM. For the same compound, the GI50 [37] was over 100 µM, the TGI [37] was over 100 µM and the GI50 [38] was over 100 µM. It also gave a TGI [38] of over 100 µM, a GI50 [39] of over 100 µM and a TGI [39] of over 100 µM. The GI50 [40] was over 100 µM, the TGI [40] was over 100 µM and the GI50 [41] was over 100 µM. The TGI [41] was over 100 µM, the GI50 [42] was over 100 µM and the TGI [42] was over 100 µM. For the same compound, the GI50 [43] was over 100 µM, the TGI [43] was over 100 µM and the GI50 [44] was over 100 µM. For the same compound, the TGI [44] was over 100 µM, the GI50 [45] was over 100 µM and the TGI [45] was over 100 µM. It also gave a GI50 [46] of over 100 µM, a TGI [46] of over 100 µM and a GI50 [47] of over 100 µM. The TGI [47] was over 100 µM, the GI50 [48] was over 100 µM and the TGI [48] was over 100 µM. For the same compound, the GI50 [49] was over 100 µM, the TGI [49] was over 100 µM and the GI50 [50] was over 100 µM. It also gave a TGI [50] of over 100 µM, a GI50 [51] of over 100 µM and a TGI [51] of over 100 µM. For the same compound, the GI50 [52] was over 100 µM, the TGI [52] was over 100 µM and the GI50 [53] was 48.1 µM. The TGI [53] was over 100 µM, the GI50 [54] was over 100 µM and the TGI [54] was over 100 µM. For the same compound, the GI50 [55] was over 100 µM, the TGI [55] was over 100 µM and the GI50 [56] was over 100 µM. The TGI [56] was over 100 µM, the GI50 [57] was over 100 µM and the TGI [57] was over 100 µM. It also gave a GI50 [58] of over 100 µM and a TGI [58] of over 100 µM.

`CC1OCC2OC(C)OC(C3C4=C(CC(C)(C)CC4=O)OC4=C3C(=O)CC(C)(C)C4)C2O1` (stereo not drawn) showed a TGI [1] of over 100 µM, a TGI [2] of over 100 µM and a TGI [3] of over 100 µM. For the same compound, the TGI [4] was over 100 µM, the TGI [5] was over 100 µM and the TGI [6] was over 100 µM. The TGI [7] was over 100 µM, the TGI [8] was over 100 µM and the TGI [9] was over 100 µM. It also gave a TGI [10] of over 100 µM, a TGI [11] of over 100 µM and a TGI [13] of over 100 µM. It also gave a TGI [14] of over 100 µM, a TGI [15] of over 100 µM and a TGI [16] of over 100 µM. For the same compound, the TGI [17] was over 100 µM, the TGI [18] was over 100 µM and the TGI [19] was over 100 µM. It also gave a TGI [20] of over 100 µM, a TGI [21] of over 100 µM and a TGI [22] of over 100 µM. It also gave a TGI [23] of over 100 µM, a TGI [24] of over 100 µM and a TGI [25] of over 100 µM. It also gave a TGI [26] of over 100 µM, a TGI [27] of over 100 µM and a TGI [59] of over 100 µM. It also gave a TGI [28] of over 100 µM, a TGI [29] of over 100 µM and a TGI [30] of over 100 µM. It also gave a TGI [31] of over 100 µM, a TGI [32] of over 100 µM and a TGI [33] of over 100 µM. For the same compound, the TGI [34] was over 100 µM, the TGI [35] was over 100 µM and the TGI [36] was over 100 µM. The TGI [37] was over 100 µM, the TGI [38] was over 100 µM and the TGI [39] was over 100 µM. It also gave a TGI [40] of over 100 µM, a TGI [41] of over 100 µM and a TGI [42] of over 100 µM. It also gave a TGI [43] of over 100 µM, a TGI [45] of over 100 µM and a TGI [47] of over 100 µM. The TGI [48] was over 100 µM, the TGI [49] was over 100 µM and the TGI [50] was over 100 µM. The TGI [51] was over 100 µM, the TGI [53] was over 100 µM and the TGI [54] was over 100 µM. It also gave a TGI [55] of over 100 µM, a TGI [56] of over 100 µM and a TGI [57] of over 100 µM. It also gave a TGI [58] of over 100 µM.

Compound `N#Cc1c(-c2ccco2)c2c(n(C3OC(CO)C(O)C(O)C3O)c1=S)CCCC2` (stereo not drawn) has a TGI [1] of over 100 µM, a TGI [2] of over 100 µM and a TGI [3] of over 100 µM. For the same compound, the TGI [4] was over 100 µM, the TGI [5] was over 100 µM and the TGI [6] was over 100 µM. For the same compound, the TGI [7] was over 100 µM, the TGI [8] was over 100 µM and the TGI [9] was over 100 µM. For the same compound, the TGI [10] was over 100 µM, the TGI [11] was over 100 µM and the TGI [13] was over 100 µM. The TGI [14] was over 100 µM, the TGI [15] was over 100 µM and the TGI [16] was over 100 µM. It also gave a TGI [17] of over 100 µM, a TGI [18] of over 100 µM and a TGI [19] of over 100 µM. The TGI [20] was over 100 µM, the TGI [21] was over 100 µM and the TGI [22] was over 100 µM. For the same compound, the TGI [23] was over 100 µM, the TGI [24] was over 100 µM and the TGI [25] was over 100 µM. It also gave a TGI [26] of over 100 µM, a TGI [27] of over 100 µM and a TGI [59] of over 100 µM. For the same compound, the TGI [28] was over 100 µM, the TGI [29] was over 100 µM and the TGI [32] was over 100 µM. For the same compound, the TGI [33] was over 100 µM, the TGI [34] was over 100 µM and the TGI [35] was over 100 µM. For the same compound, the TGI [37] was over 100 µM, the TGI [38] was over 100 µM and the TGI [39] was over 100 µM. For the same compound, the TGI [40] was over 100 µM, the TGI [41] was 0.0981 µM and the TGI [42] was over 100 µM. The TGI [43] was over 100 µM, the TGI [45] was over 100 µM and the TGI [46] was over 100 µM. It also gave a TGI [47] of over 100 µM, a TGI [48] of over 100 µM and a TGI [49] of over 100 µM. The TGI [50] was over 100 µM, the TGI [52] was over 100 µM and the TGI [53] was over 100 µM. The TGI [54] was over 100 µM, the TGI [55] was over 100 µM and the TGI [57] was over 100 µM. The TGI [58] was over 100 µM.
